Source: patent publication US12344852B2, “Control of phenotype in plants” (GREENVENUS, LLC, priority 2016, dated 2025)

Assays:
[1] = tested on: Barnase/IP:Barstar (ID06) transgenic Arabidopsis plants; test: Restoration of flowering in Barnase/IP:Barstar (ID06) transgenic plants by ligand spray; assay type: in vivo; conditions: for B/FS:B plants that developed flowers: T2 ID06 plants, end of experiment day 51
Description: A vector ID06, illustrated diagrammatically in FIG. 11, was constructed to provide constant expression of the barnase ribonuclease from Bacillus amyloliquefaciens in flower primordia to suppress flowering. The DNA construct (ID06) was transformed into wild type Arabidopsis by flower dipping method. T1 seeds were harvested and germinated in soil. Seven day old T1 seedlings were sprayed with LIBERTY® 280SL herbicide and 37 transgenic plants resistant to the herbicide survived. Transformants were analyzed by quantitative PCR (qPCR) to check transgene copy numbers. Thirteen percent of transgenic events contained only one copy of the transgene. All events were grown in growth chambers to evaluate phenotypes. The transgenic plants containing ID06 DNA construct should express the cytotoxic ribonuclease barnase in flower primordia which prevents formation of flowers. […] Instead of flowers, the Barnase/IP:Barstar plants have elongated small leaves that could have derived from sepals as shown in the inset picture of FIG. 12B.
The seven week old non-flowering plants were then sprayed with the ligand methoxyfenozide (2.5 μM) to turn on barstar expression and restore flowering. Ligand applications were performed every other day until all flowers had developed. […] T2 seeds were harvested for further evaluation of the transgenic lines on T2 plants.
Multiple T2 plants from six independent single copy transgenic ID06 events along with wt arabidopsis control plants were grown for three weeks. At three weeks plants from each line were divided in 3 treatment groups of 12 plants in each. The treatment was applied every other day for 30 days. The plants in group A were sprayed with plain water, in group B—with 50 nM solution of methoxyfenozide, and in group C—with 250 nM solution of methoxyfenozide. Before start of the treatment leaf tissue was collected from each plant for DNA extraction and genotype assessment by qPCR to identify homozygous, heterozygous and null segregant plants.
Plants were assessed as to whether they ever flowered (yes/no at the end of experiment, day 51) and the time to start flowering defined as the number of days after the first application of methoxyfenozide (days post-treatment: DPT) until the first flower bud appears. […] All the null segregants and wild-type plants flowered irrespectively of whether or not they were sprayed with methozyfenozide.

Botrytis cinerea = test: Ligand inducible disease resistance screening of detached petunia leaves; assay type: in vivo
Method: Botrytis cinerea isolation and inoculation. The plant pathogen was isolated from diseased strawberries displaying typical symptomology. A single spore colony was isolated using standard plant pathology methodologies and the ITSI—5.8S rDNA—ITSII locus was amplified and sequenced to validate its identity. The isolate used is 100% identical to more than 20 previously reported B. cinerea isolates in Genbank. For plant inoculation B. cinerea was grown on V8 Agar media under fluorescent light for 2 weeks until the typical grey mass of aerial spores was visible. A section of the colony was placed into 10 mL of sterile DI water and vortexed vigorously to dislodge spores. The resulting solution was filtered through a 70 micron mesh to yield a homogenous spore solution free of mycelia and agar media. The spore solution was spun down and washed 3× in sterile DI water and quantified using a hemocytometer. The solution was diluted in sterile DI water to a final concentration of 200,000 spores/ml. For petunia inoculations, detached leaves were wounded with a sterile forceps (approximately 0.5 mm abrasion) and the wounded site was inoculated with 10 μL of spore solution (2,000 spores/inoculation site). Three leaves/treatment and three wound sites/leaf were inoculated with spore solution for each assay. […]

## COc1cccc(C(=O)NN(C(=O)c2cc(C)cc(C)c2)C(C)(C)C)c1C [methoxyfenozide, 3-methoxy-2-methylbenzoic acid 2-(3,5-dimethylbenzoyl)-2-(1,1-dimethylethyl)hydrazide]
[1]; 2.5 μM ligand, FIG. 12 Panel C
  flowering of Barnase/Barstar plants: flowering
[1]; 50 nM sprayed every other day for 30 days
  B/FS:B plants that developed flowers: 56 of 57
[1]; 250 nM sprayed every other day for 30 days
  B/FS:B plants that developed flowers: 50 of 52
[1]; T2 plants, 50 nM or 250 nM
  delay in the time to start flowering between ligand-treated transgenic (ID06) and non-transgenic plants: 8 to 10 days
[1]; same effect at 50 nM and 250 nM solution
  minimal effective concentration on flowering: lower than 50 nM
[1]; seven week old non-flowering T1 plants, 2.5 μM sprayed every other day
  time after ligand application until flower buds and flowers appear: seven
Botrytis cinerea; leaves on 50 uM in 1% phytoagar, inoculated after 3 days, read 7 days after pathogen inoculation
  disease resistance of Switch-DCL1/DCL2/GUS hairpin line: ligand induced disease resistance
Botrytis cinerea; presence or absence of 50 uM ligand
  disease resistance of constitutive DCL-25 (+ control) and non-specific dsRNA line (− control): no change in disease resistance
